In the NIST ThermoML archive (doi:10.1021/acs.jced.5b00670):

Experiments:
[1] = mn = molality of the nth substance listed, in mol/kg; details: 298.15 K, 101.33 kPa, Liquid, Alternating current cell with electrodes
[2] = 298.15 K, 101.33 kPa, Liquid; for viscosity: Concentric cylinders viscometry; for mass density: Vibrating tube method

CCCC[P+](CCCC)(CCCC)CCCC.CS(=O)(=O)[O-] [tetrabutylphosphonium methanesulfonate] + NC=O
[1]
Details | molar conductivity [S·m2/mol]
m1 = 0.00084 | 0.00215
m1 = 0.001471 | 0.00201
m1 = 0.002032 | 0.00186
m1 = 0.002641 | 0.00177
m1 = 0.003191 | 0.00167
m1 = 0.003793 | 0.00159
m1 = 0.004583 | 0.00148
m1 = 0.005305 | 0.00139
m1 = 0.006146 | 0.0013
m1 = 0.007072 | 0.00119
m1 = 0.007937 | 0.00113
m1 = 0.008497 | 0.00107

CCCC[P+](CCCC)(CCCC)CCCC.CS(=O)(=O)[O-] [tetrabutylphosphonium methanesulfonate] + O
[1]
Details | molar conductivity [S·m2/mol]
m1 = 0.000818 | 0.00412
m1 = 0.001471 | 0.00388
m1 = 0.002032 | 0.00366
m1 = 0.002641 | 0.00348
m1 = 0.003191 | 0.00334
m1 = 0.003793 | 0.00317
m1 = 0.004583 | 0.003
m1 = 0.005305 | 0.00288
m1 = 0.006146 | 0.00274
m1 = 0.007072 | 0.00258
m1 = 0.007937 | 0.00245
m1 = 0.008497 | 0.0024

CC#N [acetonitrile]
[2]
Details | mass density [kg/m3] | viscosity [mPa·s]
– | 776.68 | 0.34

CCCC[P+](CCCC)(CCCC)CCCC.CS(=O)(=O)[O-] [tetrabutylphosphonium methanesulfonate] + C[N+](=O)[O-]
[1]
Details | molar conductivity [S·m2/mol]
m1 = 0.000865 | 0.00765
m1 = 0.001335 | 0.00741
m1 = 0.00177 | 0.00723
m1 = 0.002409 | 0.00698
m1 = 0.002979 | 0.00674
m1 = 0.003623 | 0.00653
m1 = 0.004197 | 0.0063
m1 = 0.004926 | 0.00611
m1 = 0.005713 | 0.00588
m1 = 0.006624 | 0.00563
m1 = 0.007619 | 0.00541
m1 = 0.008608 | 0.00518

CCCC[P+](CCCC)(CCCC)CCCC.CS(=O)(=O)[O-] [tetrabutylphosphonium methanesulfonate] + CC#N
[1]
Details | molar conductivity [S·m2/mol]
m1 = 0.000975 | 0.0159
m1 = 0.001787 | 0.0156
m1 = 0.002451 | 0.0154
m1 = 0.003035 | 0.0153
m1 = 0.00354 | 0.0151
m1 = 0.00398 | 0.015
m1 = 0.004717 | 0.0149
m1 = 0.005305 | 0.0148
m1 = 0.006188 | 0.0146
m1 = 0.007186 | 0.0145
m1 = 0.00808 | 0.0143
m1 = 0.008774 | 0.0142

C[N+](=O)[O-] [nitromethane]
[2]
Details | mass density [kg/m3] | viscosity [mPa·s]
– | 1130.15 | 0.62

NC=O [formamide]
[2]
Details | mass density [kg/m3] | viscosity [mPa·s]
– | 1129.22 | 3.3

CCCC[P+](CCCC)(CCCC)CCCC.CS(=O)(=O)[O-] [tetrabutylphosphonium methanesulfonate] + CO
[1]
Details | molar conductivity [S·m2/mol]
m1 = 0.000912 | 0.00826
m1 = 0.001456 | 0.00793
m1 = 0.001998 | 0.00769
m1 = 0.002473 | 0.00752
m1 = 0.002947 | 0.00737
m1 = 0.003599 | 0.00721
m1 = 0.00425 | 0.007
m1 = 0.004926 | 0.00686
m1 = 0.005759 | 0.0066
m1 = 0.006723 | 0.00645
m1 = 0.007795 | 0.0062
m1 = 0.008664 | 0.00603

CO [methanol]
[2]
Details | mass density [kg/m3] | viscosity [mPa·s]
– | 786.61 | 0.55

O [water]
Details | viscosity [mPa·s]
[2] | 0.89
